Experimental data from the NIST ThermoML archive (doi:10.1021/acs.jced.9b00411).
Numbers after ± are expanded uncertainties.

Settings: Crystal; DSC

Triple point temperature: 437.78 ± 1.2 K
SMILES: Nc1ccc(S(N)(=O)=O)cc1 [4-aminobenzenesulfonamide]
